In one series the test system is hAPP Tg mice (APP751S/L). Kind of series: Morris Water Maze in hAPP Tg mice. The following applies: for probe trial: crossings over the former target position: 1 mg/kg, versus Tween 80 vehicle group; for performance in Morris Water Maze: other concentration of AC-91 (not 1 or 20 mg/kg) or Compounds B. It is filed as in vivo, mouse. The procedure: Therefore, mice were treated for 33 days and in the end of the treatment period behavior was evaluated in the Morris Water Maze and additionally a Object Recognition Task.
Female Tg and nTg mice with a C57BL/6×DBA background and an age of 7 months (±2 week) were randomly assigned to treatment groups 1 to 9 (n=20 for groups 3 to 7, n=15 for groups 1, 2, 8 and 9). […] All animals which were used for the present study had dark eyes and were likely to perceive the landmarks outside the MWM pool. However, it had to be excluded that seeing abilities of an animal were poor, which was controlled in the visible platform training, the so called pretest, before treatment start for all animals including reserves enclosed to the study. In case a seeing handicap for a specific animal would have been affirmed, the mouse would have been excluded from the study.
Compounds or vehicle were administered via oral gavage in a daily volume of 10 ml/kg/b.w. for 33 days.
The Morris Water Maze task was conducted in a black circular pool of a diameter of 100 cm. Tap water was filled in with a temperature of 22±1° C. and the pool was virtually divided into four sectors. A transparent platform (8 cm diameter) was placed about 0.5 cm beneath the water surface. During the whole test session, except the pretest, the platform was located in the southwest quadrant of the pool.
One day before the 4 days lasting training session animals had to perform a so called “pre-test” (two 60 sec lasting trials) to ensure that the seeing abilities of each animal were normal. Only animals that fulfilled this task were enclosed to the MWM testing.
In the MWM task, each mouse had to perform three trials on four consecutive days. A single trial lasted for a maximum of one minute. During this time, the mouse had the chance to find the hidden, diaphanous target. If the animal could not find a “way” out of the water, the investigator guided to or placed the mouse on the platform. After each trial mice were allowed to rest on the platform for 10-15 sec.
During this time, the mice had the possibility to orientate in the surrounding. Investigations took place under dimmed light conditions, to prevent the tracking system from negative influences (Kaminski; PCS, Biomedical Research Systems). On the walls surrounding the pool, posters with black, bold geometric symbols (e.g. a circle and a square) were fixed which the mice could use the symbols as landmarks for their orientation.
One swimming group per trial consisted of five to six mice, so that an intertrial time of about five to ten minutes was ensured. For the quantification of escape latency (the time [second]−the mouse needed to find the hidden platform and therefore to escape from the water), of pathway (the length of the trajectory [meter] to reach the target) and of the abidance in the goal quadrant a computerized tracking system was used. The computer was connected to a camera placed above the centre of the pool. The camera detected the signal of the light emitting diode (LED), which was fixed with a little hairgrip on the mouse's tail.
Twenty-four hours after the last trial on day 4 the mice had to fulfil a so-called probe trial. At this time, the platform was removed from the pool and during the one-minute probe trial; the experimenter counted the number of crossings over the former target position. Additionally the abidance in this quadrant as well as the three other quadrants was calculated. Through out this trial a mouse could not get any, howsoever natured, clue from the platform.

A further series is described as follows: in vivo. As to conditions: rat. Here is the method: AC-92 was prepared in DMSO and diluted in sterile phosphate buffered saline (final DMSO concentration 1.0%). […] Animals were sacrificed at 3 and 6 hours after dosing via lethal narcosis. Blood was sampled via cardiac puncture. Serum was prepared by allowing whole blood to stand at 4° C. for 60 min; plasma was prepared using heparin as the anti-coagulant. CSF was collected via the foramen magnum immediately after sacrifice. Brain material was collected by opening of the skull and simple excision of the right cortex. Samples were snap frozen using liquid nitrogen immediately after collection. All procedures were conducted in conformity with applicable German and EU laws on animal experimentation and the study was approved by a government appointed ethics committee.
To determine the extent of central exposure, bioavailability studies were undertaken.

The next series concerns APPPS1 transgenic mice. Kind of series: Plaque load, plaque volume and area in APPPS1 transgenic model for cerebral amyloidosis. The format is in vivo, mouse. As to conditions: for increase of amyloid load as % of that expected with normal progression of the model: AC-92 after 3 months, AC-91 at month 5; for plaque volume and area smaller than vehicle-treated controls: APPPS1 mice. The procedure: The transgenic model and corresponding […] analysis of brain sections was provided by Prof. Mathias Jucker, Department of Cellular Neurology, Hertie-Institute for Clinical Brain Research University of Tübingen, Otfried-Müller Strasse 27, D-72076 Tübingen, Germany. APPPS1 transgenic mice express both KM670/671NL mutated human APP and L166P mutated human PS1 under the Thy-1 promoter element (Radde et al., 2005). They were treated with the compounds from the age of 126 days after birth (DAB) to 158 DAB. […] On completion of the dosing period, animals were sacrificed by lethal narcosis followed by collection of blood by cardiac puncture and recovery of brain material for sectioning and extraction of drug and relevant peptides. […] Brains were removed and postfixed at 4° C. in 4% PFA, dehydrated in 30% sucrose, and frozen. Serial coronal serial 40 μm sections were cut with a microtome and collected in cryoprotectant (30% glycerol, 45% ethylene glycol in PBS) and stored at −20° C. until use.
Free-floating sections were processed for immunohistochemistry as described elsewhere (Stalder et al., 2005). Briefly, sections were washed in TBS and blocked with 3% goat or donkey serum (Vector Laboratories Inc., Burlingame, Calif.) in 0.3% Triton-X-100 (Fisher, Fair Lawn, N.J.). The sections were incubated overnight with primary antibodies at 4° C. in 2% serum and 0.3% Triton-X-100, washed three times with TBS and incubated for 3 hours with biotin-conjugated secondary antibodies. After repeated TBS washing, sections were stained by complexing with SG blue (Vectastain ABC elite kit; Vector Laboratories). Sections were mounted on precleaned glass microscope slides (Superfrost® Plus; Langenbrinck, Teningen, Germany), dehydrated with an alcohol series, cleared in xylene and coverslipped in a xylene soluble mounting medium (Pertex®, medite GmbH, Burgdorf, Germany). Amyloid load was estimated on every 12th section throughout the entire neocortex.
In vivo experiments were performed using a very aggressive double transgenic mouse model for cerebral amyloidosis (Radde et al., 2006). APPPS1 transgenic mice expressing both KM670/671NL mutated human APP and L166P mutated human PS1 under the Thy-1 promoter element (Radde et al., 2005) were treated with the compounds from the age of 126 days after birth (DAB) to 158 DAB. Mice were treated as described in A3. above. On completion of the dosing period, samples were taken from the animals and snap frozen using liquid nitrogen as reported herein previously (see Section A3. above).
In the model, plaque load in the brain is known to increase roughly exponentially with age (Radde et al., 2005). […] These conditions should be suitable to provide insight, whether initial formation of plaques or downstream processes reversing existing plaque loads are involved in corresponding drug effects.

The nature of series [1]: ACI-91 and ACI-92 levels in plasma, CSF and brain homogenates of transgenic mice. The format is in vivo, mouse. As to conditions: for concentration in brain as % of plasma concentration / Kp at 33 days: 100 mg/kg ACI-91 or 50 mg/kg ACI-92, 33 days; for Kp at 33 days: mouse, brain homogenate, oral, read-out: concentration in brain as % of plasma concentration. Here is the method: Determination of ACI-91 and ACI-92 in mouse plasma, CSF and brain homogenate samples was done by HPLC-MS/MS by Quality Assistance SA, Technoparc de Thudinie 2, B-6536 Donstiennes, Belgium.
The amounts of ACI-91 and of ACI-92 in plasma, CSF and in brain homogenates is determined after treatment of hAPP single transgenic mice (JSW, Graz) and hAPP-PS1 double-transgenic mice (Synovo, Tübingen), respectively, for 33 days with doses of 1, 5, 20 and 100 mg/kg of ACI-91 and 50 mg/kg ACI-92 and doses of 100 mg/kg of ACI-91 and 50 mg/kg ACI-92, respectively.

The format of series [2] is in vivo. As to conditions: daily oral gavage, 33 days; AC-91 in four different concentrations.
Text: In total 171 female hAPP Tg and nTg mice with an age of 6.5 months at treatment start were enclosed to study.

Molecules are shown by their SMILES. “Also recorded” adds a separate entry of the source. Where two headings read alike, the source gives them in different places.

The term half-life denotes the time in which the quantity being followed falls by half.

For `CN1CCN(CC(=O)N2c3ccccc3C(=O)Nc3cccnc32)CC1` [AC-91, pirenzepine], the “escape latency in Morris Water Maze” value in the series with hAPP Tg mice (APP751S/L) (1 mg/kg daily oral, 33 days) was “reduced relatively to the historic group”; in the series on hAPP Tg mice (APP751S/L) (20 mg/kg daily oral, 33 days), “comparable escape latency to the ntg vehicle treated mice; also recorded: reduced relatively to the historic group”; in the series on hAPP Tg mice (APP751S/L) (20 mg/kg daily oral, 33 days, listed as formula II), “comparable escape latency to the non transgenic vehicle treated mice”. The “probe trial: crossings over the former target position” value is “significantly (p<0.05) more often” in the series on hAPP Tg mice (APP751S/L) and “significantly more often” in the series with hAPP Tg mice (APP751S/L) (listed as formula II). Also, in the series on hAPP Tg mice (APP751S/L) (dose escalation to 100 mg/kg), the memory performance entry is on record as “didn't improve memory performance”. In addition, in the series on hAPP Tg mice (APP751S/L) (hAPP Tg mice, 33 days), the “performing the Morris Water Maze task compared to the historic group” value is on record as “led to an improvement”. The “performance in Morris Water Maze” value in the series on hAPP Tg mice (APP751S/L) is listed as “weak performance similar to that observed in the historic tg group”. This compound also had a half-life in the series “in vivo” (male, Lewis, po) of approximately 12 h.
Regarding `O=C1Nc2cccnc2Nc2ccccc21` [AC-92, LS-75], the “Morris Water Maze / probe trial versus Tween 80 vehicle mice” value with hAPP Tg mice (APP751S/L) (AC-92 treated mice) was “no difference to the Tween 80 mice”. Moreover, the “performance in Morris Water Maze” value in the series on hAPP Tg mice (APP751S/L) is recorded as “weak performance similar to that observed in the historic tg group”. Also, the “increase of amyloid load as % of that expected with normal progression of the model” value with APPPS1 transgenic mice is listed as 55%; in the series with APPPS1 transgenic mice (listed as formula III), “about 60%”. The “plaque volume and area smaller than vehicle-treated controls” value in the series with APPPS1 transgenic mice (month 2-3) and in the series with APPPS1 transgenic mice (month 4-5) was “about 26%” in each case. The β-amyloid plaque load result in the series on APPPS1 transgenic mice (daily p.o. 50 mg/kg AC-92 or 100 mg/kg AC-91 for one month, between months 1 and 5 after birth) is on record as “substantial reductions”. The compound also came in with an amyloid load with APPPS1 transgenic mice (treated animals after 3 months, 50 mg/kg daily p.o.) of 0.61%. Moreover, the “concentration in brain as % of plasma concentration” value is recorded as “about 5%” in series [1] (4 months old double transgenic mice) and 11% in series [1] (8 months old single transgenic mice). For the same compound, in series [1] (4 months old double transgenic mice, listed as ACI92), the “concentration in CSF as % of plasma concentration” value is recorded as 20%. The Kp at 33 days was approximately 0.11 in series [1] (hAPP single transgenic, 8 months old single transgenic mice) and approximately 0.05 in series [1] (hAPP-PS1 double-transgenic, 4 months old double transgenic mice). In the series “in vivo” (male, Lewis, ip, 50 mg/kg), the Kp is approximately 0.25. This compound also registered a concentration at 3 h in the series “in vivo” (male, Lewis, po, 50 mg/kg) of approximately 20 nM. This compound also returned a concentration at 6 h in the series “in vivo” (male, Lewis, po, 50 mg/kg) of approximately 75 nM. In addition, the “enrichment in the brain” value in the series “in vivo” (po) was “enriched in the brain to a certain extent”. Also, in series [2], the “tolerability of the treatment” value was “well tolerated”.
Take `O=C1Nc2cccnc2N(C(=O)CN2CCNCC2)c2ccccc21` [des-methyl-AC-91]: the “detection in CSF” value in “in vivo” (po, 50 mg/kg) is “No AC-91 or dm-AC-91 was detected”.

(Values after US20100247688A1 (priority 2007, published 2010).)
